This is an account of results in BindingDB's records for doi:10.1111/cbdd.12732 (Yogi Vemana University, 2016).

Acetylcholinesterase, sequence (O42275 whole entry): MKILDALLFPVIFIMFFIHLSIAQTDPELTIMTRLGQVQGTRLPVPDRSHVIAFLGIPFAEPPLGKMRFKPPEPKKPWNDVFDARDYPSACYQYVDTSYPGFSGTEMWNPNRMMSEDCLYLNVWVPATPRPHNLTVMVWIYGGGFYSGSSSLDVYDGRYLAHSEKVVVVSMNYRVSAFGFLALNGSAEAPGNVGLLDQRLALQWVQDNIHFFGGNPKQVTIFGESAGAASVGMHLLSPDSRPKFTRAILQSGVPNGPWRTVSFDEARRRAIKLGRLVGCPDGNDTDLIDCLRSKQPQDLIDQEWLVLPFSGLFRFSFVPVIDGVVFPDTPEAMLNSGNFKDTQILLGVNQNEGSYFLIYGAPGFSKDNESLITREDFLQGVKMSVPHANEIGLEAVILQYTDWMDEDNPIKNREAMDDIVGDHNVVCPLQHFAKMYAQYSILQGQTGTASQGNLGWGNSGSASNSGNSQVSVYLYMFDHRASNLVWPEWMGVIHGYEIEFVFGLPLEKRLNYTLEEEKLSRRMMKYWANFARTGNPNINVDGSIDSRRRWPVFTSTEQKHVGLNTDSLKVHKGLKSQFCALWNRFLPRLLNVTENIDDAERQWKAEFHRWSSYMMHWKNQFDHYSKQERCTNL

The target in the assay is Acetylcholinesterase (Electrophorus electricus, UniProt O42275). Briefly: AChE Inhibitory Assay. The conditions noted are these: pH 7.7. As for the experimental part:
The mixture was incubated at 25 °C for 5 min. Subsequently, the enzymatic reaction was initiated by addition of 15 µL of 1 mM of acetylthiocholine iodide or butyrylthiocholine iodide (according to the respective enzyme), and the mixture was again incubated for 5 min at 25 °C. The rate of absorbance change was measured at 412 nm for 6 min using a microplate reader (Bio-Rad 680, Germany). Galantamine was applied as positive drug.
`N=c1oc2ccc3ccc(=O)oc3c2cc1C(=O)NCc1cccc(Cl)c1` [N-(3-chlorobenzyl)-8-imino-2-oxo-2H,8H-pyrano[2,3-f]chromene-9-carboxamide (4o)]: the IC50 amounted to 0.088 µM. Consider `N=c1oc2ccc3ccc(=O)oc3c2cc1C(=O)N1CCOCC1` [8-imino-9-(morpholine-4-carbonyl)-2H,8H-pyrano[2,3-f]chromen-2-one (4f)], for which half-maximal inhibition (IC50) required 0.226 µM. With `N=c1oc2ccc3ccc(=O)oc3c2cc1C(=O)NC1CCCCC1` [N-cyclohexyl-8-imino-2-oxo-2H,8H-pyrano[2,3-f]chromene-9-carboxamide (4e)] the figure was 0.169 µM. With `COc1ccc(C(C)NC(=O)c2cc3c(ccc4ccc(=O)oc43)oc2=N)cc1` (configuration not stated) [8-imino-N-(1-(4-methoxyphenyl)ethyl)-2-oxo-2H,8Hpyrano[2,3-f]chromene-9-carboxamide (4j)] the figure was 0.39 µM; with `N=c1oc2ccc3ccc(=O)oc3c2cc1C(=O)NCc1ccccc1` [N-benzyl-8-imino-2-oxo-2H,8H-pyrano[2,3-f]chromene-9-carboxamide (4g)], 0.497 µM. To `N=c1oc2ccc3ccc(=O)oc3c2cc1C(=O)NC(c1ccccc1)c1ccccc1` [N-benzhydryl-8-imino-2-oxo-2H,8H-pyrano[2,3-f]chromene-9-carboxamide (4i)] belongs 0.669 µM; to `Cc1cc(=O)oc2c1ccc1oc(=N)c(C(=O)NCc3ccc(C(C)(C)C)cc3)cc12` [N-(4-(tert-butyl)benzyl)-8-imino-4-methyl-2-oxo-2H,8H-pyrano[2,3-f]chromene-9-carboxamide (4p)], 0.077 µM. Consider `CCCCCCCCCCCCNC(=O)c1cc2c(ccc3ccc(=O)oc32)oc1=N` [N-dodecyl-8-imino-2-oxo-2H,8H-pyrano[2,3-f]chromene-9-carboxamide (4c)], for which half-maximal inhibition (IC50) was put at 0.083 µM. This IC50 and that of the molecule before are within 1.5-fold of each other. To `CNC(=O)c1cc2c(ccc3ccc(=O)oc32)oc1=N` [8-imino-N-methyl-2-oxo-2H,8H-pyrano[2,3-f]chromene-9-carboxamide (4a)] belongs 0.415 µM. `N=c1oc2ccc3ccc(=O)oc3c2cc1C(=O)NC1CC1` [N-cyclopropyl-8-imino-2-oxo-2H,8H-pyrano[2,3-f]chromene-9-carboxamide (4d)] returned an IC50 of 0.799 µM. Consider `COc1ccc(CNC(=O)c2cc3c(ccc4ccc(=O)oc43)oc2=N)c(OC)c1` [N-(2,4-dimethoxybenzyl)-8-imino-2-oxo-2H,8H-pyrano[2,3-f]chromene-9-carboxamide (4k)], for which the IC50 was 0.3 µM. With `CC(NC(=O)c1cc2c(ccc3ccc(=O)oc32)oc1=N)c1ccccc1` (configuration not stated) [8-imino-2-oxo-N-(1-phenylethyl)-2H,8H-pyrano[2,3-f]chromene-9-carboxamide (4h)] the figure was 0.462 µM.

Regarding `N=c1oc2ccc3ccc(=O)oc3c2cc1C(=O)NCc1ccccc1Cl` [N-(2-chlorobenzyl)-8-imino-2-oxo-2H,8H-pyrano[2,3-f]chromene-9-carboxamide (4n)], the IC50 was 0.03 µM.

Take `COc1ccccc1OCCNC(=O)c1cc2c(ccc3ccc(=O)oc32)oc1=N` [8-imino-N-(2-(2-methoxyphenoxy)ethyl)-2-oxo-2H,8H-pyrano[2,3-f]chromene-9-carboxamide (4q)]: the concentration for half-maximal inhibition (IC50) was 0.44 µM. To `N=c1oc2ccc3ccc(=O)oc3c2cc1C(=O)NCc1cccc(Br)c1` [N-(3-bromobenzyl)-8-imino-2-oxo-2H,8H-pyrano[2,3-f]chromene-9-carboxamide (4m)] belongs 0.013 µM. To `N=c1oc2ccc3ccc(=O)oc3c2cc1C(=O)NCc1ccccc1Br` [N-(2-bromobenzyl)-8-imino-2-oxo-2H,8H-pyrano[2,3-f]chromene-9-carboxamide (4l)] belongs 0.027 µM; to `CCNC(=O)c1cc2c(ccc3ccc(=O)oc32)oc1=N` [N-ethyl-8-imino-2-oxo-2H,8H-pyrano[2,3-f]chromene-9-carboxamide (4b)], 0.259 µM.

As a reminder, the IC50 is the concentration that gives 50% inhibition. A higher IC50 goes with weaker potency in that assay.
